According to patent US20260262643A1, “HERBICIDAL BENZOXAZINES” (FMC CORPORATION, priority 2022, published 2026):

Key:
[1] = test system: green foxtail; experiment: Test C postemergence; type: in vivo, Setaria viridis; details: 10 days, 0 to 100 scale (0 no effect, 100 complete control)
Outline: (§1)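 Seeds in loam–sand blend received preemergence directed soil spray of test chemicals in non-phytotoxic solvent with surfactant; postemergence treatment was applied at one- to two-leaf stage (2–10 cm). After 10 days in greenhouse, injury rated visually versus untreated controls, 0 (no effect) to 100 (complete control).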

[2] = test system: galium; experiment: Test C postemergence; type: in vivo, Galium aparine; details: 10 days, 0 to 100 scale (0 no effect, 100 complete control)
Outline: as §1

[3] = test system: blackgrass; experiment: Test C postemergence; type: in vivo, Alopecurus myosuroides; details: 10 days, 0 to 100 scale (0 no effect, 100 complete control)
Outline: as §1

[4] = test system: soybean; experiment: Test C preemergence; type: in vivo, Glycine max
Outline: as §1

[5] = test system: oat, wild; experiment: Test C postemergence; type: in vivo, Avena fatua; details: 10 days, 0 to 100 scale (0 no effect, 100 complete control)
Outline: as §1

[6] = test system: horseweed; experiment: Test C postemergence; type: in vivo, Erigeron canadensis; details: 10 days, 0 to 100 scale (0 no effect, 100 complete control)
Outline: as §1

[7] = test system: corn; experiment: Test C preemergence; type: in vivo, Zea mays
Outline: as §1

[8] = test system: soybean; experiment: Test C postemergence; type: in vivo, Glycine max; details: 10 days, 0 to 100 scale (0 no effect, 100 complete control)
Outline: as §1

[9] = test system: ducksalad; experiment: Test D flooded paddy test; type: in vivo, Heteranthera limosa; details: 250 g ai/ha, applied to paddy water, visual rating after 13 to 14 days, scale 0 to 100 (0 no effect, 100 complete control)
Outline: (§2)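 Seedlings reached the 2-leaf stage, then pots were flooded to 3 cm over the soil surface. Compound was applied into the water, depth was maintained, and plants stayed in the greenhouse 13 to 14 days before visual scoring (0–100) relative to controls.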

[10] = test system: barnyardgrass; experiment: Test C postemergence; type: in vivo, Echinochloa crusgalli; details: 10 days, 0 to 100 scale (0 no effect, 100 complete control)
Outline: as §1

[11] = test system: green foxtail; experiment: Test C preemergence; type: in vivo, Setaria viridis
Outline: as §1

[12] = test system: blackgrass; experiment: Test C preemergence; type: in vivo, Alopecurus myosuroides
Outline: as §1

[13] = test system: ragweed; experiment: Test C postemergence; type: in vivo, Ambrosia artemisiifolia; details: 10 days, 0 to 100 scale (0 no effect, 100 complete control)
Outline: as §1

[14] = test system: rice; experiment: Test D flooded paddy test; type: in vivo, Oryza sativa; details: 250 g ai/ha, applied to paddy water, visual rating after 13 to 14 days, scale 0 to 100 (0 no effect, 100 complete control)
Outline: as §2

[15] = test system: pigweed, palmer; experiment: Test C postemergence; type: in vivo, Amaranthus palmeri; details: 10 days, 0 to 100 scale (0 no effect, 100 complete control)
Outline: as §1

[16] = test system: wheat; experiment: Test C preemergence; type: in vivo, Triticum aestivum
Outline: as §1

[17] = test system: barnyardgrass; experiment: Test D flooded paddy test; type: in vivo, Echinochloa crus-galli; details: 250 g ai/ha, applied to paddy water, visual rating after 13 to 14 days, scale 0 to 100 (0 no effect, 100 complete control)
Outline: as §2

[18] = test system: kochia; experiment: Test C preemergence; type: in vivo, Bassia scoparia
Outline: as §1

[19] = test system: ryegrass, Italian; experiment: Test C postemergence; type: in vivo, Lolium multiflorum; details: 10 days, 0 to 100 scale (0 no effect, 100 complete control)
Outline: as §1

[20] = test system: sedge, umbrella; experiment: Test D flooded paddy test; type: in vivo, Cyperus difformis; details: 250 g ai/ha, applied to paddy water, visual rating after 13 to 14 days, scale 0 to 100 (0 no effect, 100 complete control)
Outline: as §2

[21] = test system: pigweed, palmer; experiment: Test C preemergence; type: in vivo, Amaranthus palmeri
Outline: as §1

[22] = test system: oat, wild; experiment: Test C preemergence; type: in vivo, Avena fatua
Outline: as §1

[23] = test system: ryegrass, Italian; experiment: Test C preemergence; type: in vivo, Lolium multiflorum
Outline: as §1

[24] = test system: corn; experiment: Test C postemergence; type: in vivo, Zea mays; details: 10 days, 0 to 100 scale (0 no effect, 100 complete control)
Outline: as §1

[25] = test system: wheat; experiment: Test C postemergence; type: in vivo, Triticum aestivum; details: 10 days, 0 to 100 scale (0 no effect, 100 complete control)
Outline: as §1

[26] = test system: barnyardgrass; experiment: Test C preemergence; type: in vivo, Echinochloa crusgalli
Outline: as §1

[27] = test system: ragweed; experiment: Test C preemergence; type: in vivo, Ambrosia artemisiifolia
Outline: as §1

[28] = test system: kochia; experiment: Test C postemergence; type: in vivo, Bassia scoparia; details: 10 days, 0 to 100 scale (0 no effect, 100 complete control)
Outline: as §1

[29] = 500 g ai/ha, preemergence, 0 to 100 scale (0 no effect, 100 complete control)
[30] = Preemergence, 125 g ai/ha, 0 to 100 scale, 0 no effect, 100 complete control

## CCOCC1CN(C(=O)c2cc(-n3cnc(C(C)(C)C)n3)ccc2OC)c2cccc(Cl)c2O1 (stereo not shown) [Compound 379]
[1]; 500 g ai/ha, postemergence
  Plant response rating, Foxtail, Green: 20
[1]; Postemergence, 125 g ai/ha
  Plant response rating, Foxtail, Green: 20
[2]; 500 g ai/ha, postemergence
  Plant response rating, Galium: 100
[2]; Postemergence, 125 g ai/ha
  Plant response rating, Galium: 70
[3]; 500 g ai/ha, postemergence
  Plant response rating, Blackgrass: 30
[3]; Postemergence, 125 g ai/ha
  Plant response rating, Blackgrass: 30
[4]; [29]
  Soybean plant response rating: 90
[4]; [30]
  Plant response rating, Soybean: 90
[5]; 500 g ai/ha, postemergence
  Plant response rating, Oat, Wild: 10
[5]; Postemergence, 125 g ai/ha
  Plant response rating, Oat, Wild: 0
[6]; 500 g ai/ha, postemergence
  Plant response rating, Horseweed: 30
[6]; Postemergence, 125 g ai/ha
  Plant response rating, Horseweed: 0
[7]; [29]
  Corn plant response rating: 30
[7]; [30]
  Plant response rating, Corn: 30
[8]; 500 g ai/ha, postemergence
  Plant response rating, Soybean: 100
[8]; Postemergence, 125 g ai/ha
  Plant response rating, Soybean: 100
[9]
  Plant response rating, Ducksalad (Flood): 55
[10]; 500 g ai/ha, postemergence
  Plant response rating, Barnyardgrass: 60
[10]; Postemergence, 125 g ai/ha
  Plant response rating, Barnyardgrass: 30
[11]; [29]
  Foxtail, Green plant response rating: 100
[11]; [30]
  Plant response rating, Foxtail, Green: 80
[12]; [29]
  Blackgrass plant response rating: 0
[12]; [30]
  Plant response rating, Blackgrass: 0
[13]; 500 g ai/ha, postemergence
  Plant response rating, Ragweed: 90
[13]; Postemergence, 125 g ai/ha
  Plant response rating, Ragweed: 30
[14]
  Plant response rating, Rice (Flood): 15
[15]; 500 g ai/ha, postemergence
  Plant response rating, Pigweed, Palmer: 100
[15]; Postemergence, 125 g ai/ha
  Plant response rating, Pigweed, Palmer: 80
[16]; [29]
  Wheat plant response rating: 40
[16]; [30]
  Plant response rating, Wheat: 20
[17]
  Plant response rating, Barnyardgrass (Flood): 35
[18]; [29]
  Kochia plant response rating: 100
[18]; [30]
  Plant response rating, Kochia: 80
[19]; 500 g ai/ha, postemergence
  Plant response rating, Ryegrass, Italian: 50
[19]; Postemergence, 125 g ai/ha
  Plant response rating, Ryegrass, Italian: 30
[20]
  Plant response rating, Sedge, Umbrella (Flood): 65
[21]; [29]
  Pigweed, Palmer plant response rating: 100
[21]; [30]
  Plant response rating, Pigweed, Palmer: 100
[22]; [29]
  Oat, Wild plant response rating: 80
[22]; [30]
  Plant response rating, Oat, Wild: 30
[23]; [29]
  Ryegrass, Italian plant response rating: 90
[23]; [30]
  Plant response rating, Ryegrass, Italian: 70
[24]; 500 g ai/ha, postemergence
  Plant response rating, Corn: 50
[24]; Postemergence, 125 g ai/ha
  Plant response rating, Corn: 30
[25]; 500 g ai/ha, postemergence
  Plant response rating, Wheat: 20
[25]; Postemergence, 125 g ai/ha
  Plant response rating, Wheat: 10
[26]; [29]
  Barnyardgrass plant response rating: 100
[26]; [30]
  Plant response rating, Barnyardgrass: 60
[27]; [29]
  Ragweed plant response rating: 80
[27]; [30]
  Plant response rating, Ragweed: 0
[28]; 500 g ai/ha, postemergence
  Plant response rating, Kochia: 90
[28]; Postemergence, 125 g ai/ha
  Plant response rating, Kochia: 90
